One molecule from ChEMBL document CHEMBL1629629, “Reassessment of recommended imipenem doses in febrile neutropenic patients with hematological malignancies” (Antimicrob Agents Chemother, 2009) can be followed below.

The nature of series [1]: Elimination half life in febrile neutropenic patient with hematological malignancies at 500 mg administered as 30 mins infusion every 6 hrs. The following applies: human, in vivo, iv. The class given is ADME, organism-based.
Series [2] is described as follows: Renal clearance in febrile neutropenic patient with hematological malignancies at 500 mg administered as 30 mins infusion every 6 hrs. The class given is ADME, organism-based, Kidney. The following applies: human, in vivo, iv, read-out: CL_renal (converted).
In another series the test system is Enterococcus. As to the kind of experiment: Antimicrobial activity against Enterococcus. The class given is functional.
Series [3] in a line: Cmax in febrile neutropenic patient with hematological malignancies at 500 mg administered as 30 mins infusion every 6 hrs. The class given is ADME, organism-based. Set-up: dose 500 mg. Particulars: human, in vivo, iv.
Series [4] deals with Homo sapiens. The experiment in a line: T>MIC in febrile neutropenic patient with hematological malignancies at 750 mg administered as 120 mins infusion every 6 hrs. The series is classed as functional.
The nature of series [5]: T>MIC in febrile neutropenic patient with hematological malignancies at 500 mg administered as infusion every 4 hrs. The series is classed as functional, Homo sapiens.
The test system of series [6] is Homo sapiens. The experiment in a line: T>MIC in febrile neutropenic patient with hematological malignancies at 500 mg administered as infusion every 6 hrs. The series is classed as functional.
The species entered for series [7] is Homo sapiens. As to the kind of experiment: T>MIC in febrile neutropenic patient with hematological malignancies at 6 g/day.
Series [8] has as its system Homo sapiens. The experiment in a line: T>MIC in febrile neutropenic patient with hematological malignancies at 500 mg administered as 30 mins infusion every 6 hrs. The class given is functional.
The subject of the next series is Pseudomonas aeruginosa. As to the kind of experiment: Antimicrobial activity against Pseudomonas aeruginosa. The series is classed as functional.

In general, half-life refers to the time needed for the level to fall by half in the phase considered. Read a high half-life as slow loss. As a reminder, the MIC90 is an inhibitory concentration at the 90% level, which refers to growth in some studies and to a panel of isolates in others. High values mean weaker potency, low ones greater potency. By Cmax is commonly meant the highest concentration seen after dosing.

Converted amounts (≈) assume the structure as drawn.

For `C[C@@H](O)[C@H]1C(=O)N2C(C(=O)O)=C(SCCNC=N)C[C@H]12` [IMIPENEM ANHYDROUS], in [1], the half-life was 1.43 h. Also, the CL renal in [2] is 79.8 mL/min. Also, the MIC90 against Enterococcus and against Pseudomonas aeruginosa was 2 µg/mL (≈ 6.68 µM) each time. In [3], the maximum concentration (Cmax) turned out to be 6600 ng/mL. The “fT>MIC” value with Homo sapiens [4] was found to be 58%; in series [5], 73%; in the series on Homo sapiens [6], 18%; in the series filed under Homo sapiens [7], 90%; with Homo sapiens [8] it was 53%.
